In patent US10883981B2, “Fluorescent fusion polypeptide, encoding nucleic acid, and cell comprising said polypeptide” (priority 2012, dated 2021):
Converted amounts (≈) assume the structure as drawn.

How the values were obtained:
[1] = system: HEK293 and U2O2 cells stably transfected with calcium biosensor; experiment: Calcium biosensor cellular localization upon calcium induced activation; assay type: cell-based; details: 10 ng/ml of PMA and 1 uM of ionomycin applied together
Text: After transfection, both cell lines presented a membrane distribution of the fluorescence.

[2] = system: U2OS stably expressing fluorescent DAG biosensor; experiment: DAG biosensor fluorescence redistribution (internalization) assay
Protocol: Cellular distribution of DAG biosensor stimulated cells. […] DAG biosensor activity was determined measuring the generation of the vesicle using image analysis algorithms.
As with the previous examples, in order to assess whether the activation of the above mentioned polypeptide induces intracellular fluorescence redistribution in living cells, peptide turboGFP was cloned as the fluorescent peptide and the cellular localization of the biosensor was analysed upon diacylglycerol induced activation. In this sense, U2O2 cell line was stably transfected with the plasmid construction that contains the above mentioned biosensor's coding sequence. […] As with the previous examples, activity was calculated as an increment of granularity by treating these cells with increasing dosages of PMA.

[3] = target: human Tachykinin receptor 1 (Neurokinin 1 receptor) (Homo sapiens, UniProt P25103); details: 10 uM, 6 hours, U2OS expressing human Neurokinin receptor 1 and calcium biosensor
human Tachykinin receptor 1 (Neurokinin 1 receptor), sequence (P25103 whole entry): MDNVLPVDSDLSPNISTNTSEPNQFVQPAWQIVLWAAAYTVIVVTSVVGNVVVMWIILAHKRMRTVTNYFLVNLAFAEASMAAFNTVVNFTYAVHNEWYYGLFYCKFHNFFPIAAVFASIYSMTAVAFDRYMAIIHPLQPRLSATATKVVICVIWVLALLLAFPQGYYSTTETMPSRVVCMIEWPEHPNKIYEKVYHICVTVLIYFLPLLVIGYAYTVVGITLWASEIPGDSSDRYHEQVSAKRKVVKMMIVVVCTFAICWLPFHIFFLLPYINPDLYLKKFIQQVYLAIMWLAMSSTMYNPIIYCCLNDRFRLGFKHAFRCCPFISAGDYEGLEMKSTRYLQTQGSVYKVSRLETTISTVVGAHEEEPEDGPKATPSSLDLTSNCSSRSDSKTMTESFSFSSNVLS
Protocol: Secondly, in order to determine whether calcium induces a significant conformational change within a physiological dynamic range, the U2O2 biosensor stable cell line was stably transfected with the human Tachykinin receptor 1.
The double stable cell line was seeded at 20,000 cells per well on 96-mm optical plates, and cultured in 200 ul of DMEM F12 supplemented with 10% fetal bovine serum. For fluorescent biosensor redistribution, cells were stimulated with different concentrations of the agonist Substancia P during 6 hours. After treatment, the nucleus was stained with DAPI and biosensor fluorescence redistribution was detected by fluorescence using image analysis algorithms. […] The activity was calculated as an increment of the granularity of these cells. Cells were treated with 11 log dilution series (n=5).

Molecule: CCCCCCCCCCCCCC(=O)O[C@@H]1[C@@H](C)[C@@]2(O)[C@@H](C=C(CO)C[C@]3(O)C(=O)C(C)=C[C@@H]23)[C@@H]2C(C)(C)[C@]12OC(C)=O [PMA]
- Membrane distribution of calcium biosensor after raising intracellular calcium [1]: substantial decrease in membrane distribution
- Cellular distribution of fluorescent DAG biosensor after treatment ([2]; 25 ng/ml, 4 hours, U2OS expressing DAG biosensor): internalized in vesicles in the citosol

Molecule: CC(C)NCC(O)c1ccc(O)c(O)c1 (centres unmarked) [Isoproterenol]
- EC50 ([2]; Homo sapiens, U2OS, 4 h, read-out: Ec50, biosensor redistribution (increment of granularity)): 0.000289 ng/mL (≈ 0.00137 nM)

Molecule: Substance P
- Cellular distribution of fluorescent calcium biosensor after treatment [3]: internalized in vesicles in the citosol

Molecule: C[C@H](CCC(=O)O)C[C@H](C)C[C@H](C)C(=O)/C=C(\O)[C@H](C)C[C@H](C)C/C=C/[C@@H](C)[C@@H](O)[C@@H](C)[C@@H](O)C[C@@H]1CC[C@@](C)([C@H]2CC[C@@](C)([C@@H](C)O)O2)O1 [ionomycin]
- Membrane distribution of calcium biosensor after raising intracellular calcium [1]: substantial decrease in membrane distribution
